Patent US20070148193A1, “Lutein concentrate” (AQUANOVA GERMAN SOLUBILISATE TECHNOLOGIES (AGT) GM, priority 2003, published 2007)

Assays:
[1] = system: LDL (low-density lipoprotein); assay: oxidation resistance of LDL (study by Milde and Elstner); format: biochemical; settings: lutein as a powder or dissolved in ethanol vs. solubilizate
From the text: A study by J. Milde and E. F. Elstner (Technical University of Munich) has shown that lutein has no effect on the oxidation resistance of LDL (low-density lipoprotein) as a powder or dissolved in ethanol. […] The micellated lutein from the solubilizate is enriched in the LDL by a factor of 9 more (10 mole lutein/mole LDL).

[2] = cited from earlier work

| Compound | effect on the oxidation resistance of LDL [1] | solubility in water (background statement) [2] |
| --- | --- | --- |
| CC1=C[C@H](O)CC(C)(C)[C@H]1/C=C/C(C)=C/C=C/C(C)=C/C=C/C=C(C)/C=C/C=C(C)/C=C/C1=C(C)C[C@@H](O)CC1(C)C [lutein] | no effect | practically insoluble in water |
| lutein ester | – | practically insoluble in water |
